Results on 16 compounds are retold here after US8063108B2, “Method for modulating microbial quorum sensing” (priority 2004, dated 2011).

The structures appear in SMILES notation.

Assay type in all cases: cell-based
The target of test [1] is T1, LasR transcriptional activator (Pseudomonas aeruginosa, UniProt P25084).
T1 construct: expressed in transfected cells; host or cells: Pseudomonas putida F117 carrying plasmid pKRC12 (lasR, PlasB-gfp)
In words: P. putida F117 pKRC12 lasB-GFP reporter assay (secondary screens). Particulars: compounds 10 μM, relative fluorescence (fluorescence divided by absorbance at 600 nm) as percent of AHL induced control; for % Activity of AHL Standard, 3 oxo C10HSL: 3oxoC10HSL 100 nM; for % Activity of AHL Standard, 3 oxo C12HSL: 3oxoC12HSL 50 nM. As to the method:
Additional screens were performed similar to screen described in the initial screen, except assays were performed in 96-well microtiter plates at a total volume of 100 μl. The reporter strain P. putida F117 pKRC12 was grown overnight at 28° C. in LB media, diluted with LB media to achieve an optical density of 0.05 at 600 nm (OD600), and 96 μl of cells were aliquoted to 96-well plates. Compounds were added at a final concentration of 100 nm or as otherwise indicated in each experiment and the bacterial cells were incubated with the compounds for approximately 30 minutes prior to the addition of 3oxoC10HSL or 3oxoC12HSL at a final concentration of 100 nM and 50 nM respectively or as indicated for each experiment. Fluorescence was measured at regular intervals after 3 hours using the Wallac Victor2 plate reader with an excitation wavelength of 485 nm and emission detection at 515 nm. Representative results are presented in FIGS. 6A and B and present the percentage of GFP expression activity as a function of expression of the AHL (3oxoC10 HSL) control. The numbers on the X axis refer to the Chembridge library reference number. Effects on growth of the antagonists were determined by measuring the optical density at 600 nm of growing bacterial cultures P. putida F 117 pKRC 12. […] (Reference for P. putida F117 pKRC12: Steidle, A., K. Sigl, R. Schuhegger, A. Ihring, M. Schmid, S. Gantner, M. Stoffels, K. Riedel, M. Givskov, A. Hartmann, C. Langebartels, and L. Eberl. 2001. Visualization of N-acylhomoserine lactone-mediated cell-cell communication between bacteria colonizing the tomato rhizosphere. Appl Environ Microbiol 67:5761-70). […]
This example presents representative results of experiments designed to test the activity of putative antagonists when challenged with different concentrations of synthetic AHLs, particularly 3oxoC12HSL. Assays were conducted with P. putida F117 pKRC12 reporter strain as described in the methods for secondary screens.
Following the initial screens to identify strong antagonists of the LasR transcriptional activator, further investigation of additional compounds in the Chembridge library was carried out. In particular, the experiments described in Example 1 identified three compounds that shared a thiocarbamate structure, as also shown in FIG. 16. To further investigate structure-activity relationships, the inventors examined the antagonist activity of 19 additional compounds with related thiocarbamate structures, using the procedures described in Example 1. The results are presented in Table 4, expressed as the percent activity of the AHL induced control. The % activity represents the relative fluorescence, which is the fluorescence observed in each assay divided by bacterial cell density as measured by absorbance at 600 nm. Compounds were assayed at a concentration of 10 μM. Assays were conducted with P. putida F117 pKRC12 reporter strain as described in the methods for secondary screens. The 3oxoC10HSL and 3oxoC12HSL were assayed at concentrations of 100 nM and 50 nM, respectively.
In general terms: A reporter such as luciferase makes a cellular process visible.

The target in another test is T2, TraR (Agrobacterium tumefaciens, UniProt P33905).
T2 construct: expressed in transfected cells; host or cells: Agrobacterium tumefaciens KYC55
T2 sequence (P33905 whole entry): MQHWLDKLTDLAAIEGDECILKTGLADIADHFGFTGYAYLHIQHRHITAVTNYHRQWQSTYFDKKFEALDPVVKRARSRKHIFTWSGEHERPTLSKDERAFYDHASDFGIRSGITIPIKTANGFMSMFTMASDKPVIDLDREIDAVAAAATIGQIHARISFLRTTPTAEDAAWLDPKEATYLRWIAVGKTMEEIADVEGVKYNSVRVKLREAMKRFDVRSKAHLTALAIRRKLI
Put plainly: Agrobacterium tumefaciens KYC55 β-Galactosidase induction plate assay. To be noted: 1 μl of 0.1 mg/ml spotted. The protocol:
(§1) Additional screens were performed as described above, except fluorescence was measured using the Wallac Victor2 plate reader with an excitation wavelength of 485 nm and emission detection at 515 nm. E. coli reporter induction assays were performed as described for P. putida. Chromobacterium violaceum CV026 and Agrobacterium tumefaciens KYC55 induction assays were performed by applying compounds to a lawn of bacteria on agar plates. C. violaceum CV026 inhibition assays were performed by applying compounds to a lawn of bacteria on agar plates containing synthetic N-3-oxohexanoyl-L-homoserine lactone.
Agrobacterium tumefaciens KYC55 is a mutant strain that is unable to produce AHLs. Exogenous AHLs must be added to induce the LuxR-type transcriptional regulator which is designated TraR in this strain. This strain contains a plasmid that encodes β-Galactosidase under the transcriptional control of TraR. Activation of TraR is indicated by the production of β-Galactosidase. Cultures were grown overnight at 28° C. in AMA broth. Induction assays were performed by applying compounds to a lawn of bacteria on AMA agar plates containing […] of X-Gal per ml. […] Activation of quorum sensing was qualitatively measured by observing the production the blue pigment that results from β-Galactosidase cleavage of the X-gal substrate in areas where compounds were applied. […]

The next test deals with T3, CviR (Chromobacterium violaceum, UniProt D3W065).
T3 construct: endogenous in cells; host or cells: Chromobacterium violaceum CV026
T3 sequence (D3W065 1-265): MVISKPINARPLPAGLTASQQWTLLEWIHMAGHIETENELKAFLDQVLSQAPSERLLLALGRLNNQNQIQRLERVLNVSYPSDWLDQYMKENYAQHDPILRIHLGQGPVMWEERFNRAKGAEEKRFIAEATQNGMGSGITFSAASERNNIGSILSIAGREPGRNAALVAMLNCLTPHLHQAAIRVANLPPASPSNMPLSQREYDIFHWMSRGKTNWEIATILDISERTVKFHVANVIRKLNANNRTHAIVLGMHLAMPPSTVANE
In words: Chromobacterium violaceum CV026 violacein plate assay. To be noted: 1 μl of 0.1 mg/ml spotted. The protocol:
as §1
Chromobacterium violaceum CV026 is a mutant that is unable to produce AHLs. Exogenous AHLs must be added to induce the LuxR-type transcriptional regulator which is designated CviR in this strain. Activation of CviR is indicated by the production of violacein. Cultures were grown overnight at 28° C. in LB media. […] Inhibition of quorum sensing was qualitatively measured by observing the lack of production of violacein in areas where compounds were applied. […] Activation of quorum sensing was qualitatively measured by observing the production of violacein in areas where compounds were applied. […]

T1 sequence (P25084 whole entry): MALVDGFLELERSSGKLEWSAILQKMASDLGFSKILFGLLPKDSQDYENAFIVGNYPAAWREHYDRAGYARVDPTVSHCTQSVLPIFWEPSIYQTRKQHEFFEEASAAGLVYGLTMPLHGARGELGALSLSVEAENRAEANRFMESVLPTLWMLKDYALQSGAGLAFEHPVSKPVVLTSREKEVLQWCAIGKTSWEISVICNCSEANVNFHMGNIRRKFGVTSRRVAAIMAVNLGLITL

On to `COc1ccc(NC(=O)CSC(N)=O)cc1` [Compound 7], for which, in test [1], the “% Activity of AHL Standard, 3 oxo C10HSL” value is given as 36.45% and the “% Activity of AHL Standard, 3 oxo C12HSL” value was found to be 49.85%.
Regarding `NC(=O)SCC(=O)Nc1cccc(O)c1` [Compound 6], in test [1], the “% Activity of AHL Standard, 3 oxo C10HSL” value was 45.08% and the “% Activity of AHL Standard, 3 oxo C12HSL” value turned out to be 49.68%.
The corresponding values for `NC(=O)SCC(=O)Nc1cccc(F)c1` [Compound 13] are 33.60% and 67.60%.
The corresponding values for `COC(=O)c1ccccc1NC(=O)CSC(N)=O` [Compound 1] are 35.86% and 33.64%.
On the same counts, the results for `NC(=O)SCC(=O)Nc1ccccc1Cl` [Compound 8] are 32.72% and 51.98%.
Take `COc1ccccc1NC(=O)CSC(N)=O` [Compound 14]: in test [1], the “% Activity of AHL Standard, 3 oxo C10HSL” value came to 46.80% and the “% Activity of AHL Standard, 3 oxo C12HSL” value is on record as 68.60%.
`COc1ccc(NC(=O)CSC(N)=O)c(OC)c1` [Compound 16]: in test [1], the “% Activity of AHL Standard, 3 oxo C10HSL” value is 35.00% and the “% Activity of AHL Standard, 3 oxo C12HSL” value is listed as 70.90%.
On the same counts, the results for `Cc1cccc(NC(=O)CSC(N)=O)c1C` [Compound 4] are 37.50% and 43.00%.
With `CCCC(=O)CC(=O)N[C@H]1CCOC1=O` [Compound 3oxoC6HSL, N-(3-oxohexanoyl)-L-homoserine lactone], the “Induction of β-Galactosidase (blue zone), control” value at TraR was “activated gene expression”. Further, the “Activation of quorum sensing (violacein production), control” value on CviR is reported as “activated gene expression”.
As for `Cc1ccc(NC(=O)CSC(N)=O)c(C)c1` [Compound 18], in test [1], the “% Activity of AHL Standard, 3 oxo C10HSL” value is on record as 40.00% and the “% Activity of AHL Standard, 3 oxo C12HSL” value is given as 82.30%.
On the same counts, the results for `CC(=O)c1ccc(NC(=O)CSC(N)=O)cc1` [Compound 12] are 59.20% and 64.90%.
The corresponding values for `NC(=O)SCC(=O)Nc1ccccc1Br` [Compound 11] are 36.60% and 56.70%.
The corresponding values for `NC(=O)SCC(=O)Nc1cccc(Cl)c1` [Compound 21] are 43.30% and 88.50%.
On to `COC(=O)c1ccc(NC(=O)CSC(N)=O)cc1` [Compound 22], for which, in test [1], the “% Activity of AHL Standard, 3 oxo C10HSL” value is on record as 57.60% and the “% Activity of AHL Standard, 3 oxo C12HSL” value stood at 101.0%.
The corresponding values for `NC(=O)SCC(=O)Nc1ccccc1O` [Compound 19] are 38.60% and 82.90%.
The corresponding values for `COc1cccc(NC(=O)CSC(N)=O)c1` [Compound 9] are 35.50% and 53.30%.
